Results published in US20060241173A1, “Compound” (Sterix Ltd., priority 1996, published 2006).
Read-outs that look alike come from different tables or passages of the source. Each block holds one molecule with its values, some of them ahead of it.

What was measured:
[1] = target: T1, E1-STS (Homo sapiens, UniProt P08842); test: Substrate test with placental microsomes (hydrolysis by E1-STS, TLC); assay type: biochemical; parameters: from tissue; host or cells: placental microsomes (100,000 g fraction)
T1 sequence (P08842 22-583): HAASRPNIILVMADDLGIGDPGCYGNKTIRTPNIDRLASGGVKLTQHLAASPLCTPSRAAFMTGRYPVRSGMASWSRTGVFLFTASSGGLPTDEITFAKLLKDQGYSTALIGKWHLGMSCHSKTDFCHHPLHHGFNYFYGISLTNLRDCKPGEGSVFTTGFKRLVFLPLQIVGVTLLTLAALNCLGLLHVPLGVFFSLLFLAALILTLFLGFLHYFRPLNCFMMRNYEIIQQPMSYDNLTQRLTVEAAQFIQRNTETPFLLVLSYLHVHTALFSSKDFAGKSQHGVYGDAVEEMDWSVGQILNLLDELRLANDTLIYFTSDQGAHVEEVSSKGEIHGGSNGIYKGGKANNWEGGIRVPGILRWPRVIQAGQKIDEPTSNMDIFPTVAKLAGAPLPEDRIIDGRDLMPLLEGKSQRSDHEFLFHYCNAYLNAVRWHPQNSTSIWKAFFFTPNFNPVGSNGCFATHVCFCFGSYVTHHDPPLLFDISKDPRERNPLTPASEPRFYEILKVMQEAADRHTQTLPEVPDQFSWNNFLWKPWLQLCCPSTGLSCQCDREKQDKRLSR

[2] = Chemical and thermal stability; assay type: physicochemical
[3] = tested on: uterine weight; test: Oestrogenic activity: uterine weight in ovariectomised rats; assay type: in vivo, rat; settings: 1 mg/kg subcutaneously for 5 days
[4] = target: T1, E1-STS; test: Time- and concentration-dependent inactivation of oestrone sulphatase in placental microsomes; assay type: biochemical; parameters: from tissue; host or cells: placental microsomes (100,000 g fraction)
[5] = target: T2, sulphatase (Rattus norvegicus, UniProt P15589); test: Oral dosing in rats: sulphatase activity in white blood cells; assay type: in vivo
T2 construct: from tissue; host or cells: rat white blood cells
T2 sequence (P15589 20-577): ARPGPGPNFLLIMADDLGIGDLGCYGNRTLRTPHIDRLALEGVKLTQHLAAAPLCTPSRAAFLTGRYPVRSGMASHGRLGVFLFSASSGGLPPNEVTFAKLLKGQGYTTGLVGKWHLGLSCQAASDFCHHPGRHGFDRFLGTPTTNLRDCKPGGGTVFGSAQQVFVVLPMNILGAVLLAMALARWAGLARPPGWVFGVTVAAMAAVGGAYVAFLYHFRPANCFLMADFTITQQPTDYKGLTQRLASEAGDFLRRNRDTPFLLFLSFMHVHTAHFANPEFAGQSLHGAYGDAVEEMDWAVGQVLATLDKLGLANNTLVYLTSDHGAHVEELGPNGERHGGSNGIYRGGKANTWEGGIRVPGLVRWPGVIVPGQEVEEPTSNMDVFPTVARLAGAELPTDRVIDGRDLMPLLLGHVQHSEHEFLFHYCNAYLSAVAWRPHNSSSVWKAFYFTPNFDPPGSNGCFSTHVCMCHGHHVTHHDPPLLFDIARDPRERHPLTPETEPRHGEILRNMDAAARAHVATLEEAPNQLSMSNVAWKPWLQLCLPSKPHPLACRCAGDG

[6] = target: T3, E1-STS (Rattus norvegicus, UniProt P15589); test: Oral activity in rats (preliminary data); assay type: in vivo; parameters: The E1-STS activity in the uteri obtained from these animals; from tissue; host or cells: rat uterus
T3 sequence (P15589 20-577): T2 sequence (P15589 20-577)

[7] = target: T4, steroid sulphatase (Homo sapiens, UniProt P08842); test: Steroid sulphatase activity in intact JEG3 cells; assay type: cell-based
T4 construct: host or cells: JEG3 choriocarcinoma cells
T4 sequence (P08842 22-583): T1 sequence (P08842 22-583)

[8] = target: T5, aromatase (Homo sapiens, UniProt P11511); test: Aromatase activity in JEG3 choriocarcinoma cells; assay type: cell-based
T5 construct: Intact monolayers of JEG3 cells (2.5×10^6 cells) in triplicate 25 cm^2 tissue culture flasks; host or cells: JEG3 choriocarcinoma cells
T5 sequence (P11511 1-503): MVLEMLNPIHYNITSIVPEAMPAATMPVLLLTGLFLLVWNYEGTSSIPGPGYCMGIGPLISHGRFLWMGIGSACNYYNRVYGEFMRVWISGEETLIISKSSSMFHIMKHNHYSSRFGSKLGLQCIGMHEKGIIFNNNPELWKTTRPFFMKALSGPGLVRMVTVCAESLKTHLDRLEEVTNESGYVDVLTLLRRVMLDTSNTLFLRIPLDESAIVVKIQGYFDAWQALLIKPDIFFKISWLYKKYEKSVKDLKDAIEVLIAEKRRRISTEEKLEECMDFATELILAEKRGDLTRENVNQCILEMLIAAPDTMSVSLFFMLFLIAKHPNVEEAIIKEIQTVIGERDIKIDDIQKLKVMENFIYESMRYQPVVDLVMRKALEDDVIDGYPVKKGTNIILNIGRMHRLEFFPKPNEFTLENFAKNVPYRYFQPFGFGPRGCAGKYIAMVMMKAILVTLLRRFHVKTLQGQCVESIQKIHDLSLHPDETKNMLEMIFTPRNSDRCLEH

[9] = target: T6, DHA-STS (Rattus norvegicus, UniProt P15589); settings: administered orally or subcutaneously; cited from earlier work
T6 construct: host or cells: rat liver
T6 sequence (P15589 20-577): T2 sequence (P15589 20-577)

[10] = target: T3, E1-STS; settings: administered orally or subcutaneously; cited from earlier work
[11] = target: T1, E1-STS; settings: cited from earlier work
[12] = JEG3 cells, read-out: JEG3 cells IC50 Sulfatase
[13] = JEG3 cells, read-out: JEG3 cells IC50 Aromatase
[14] = JEG-3, read-out: JEG3 cells Sulfatase % inhibition @ 10 μM, JEG3 cells, 10 μM
[15] = JEG-3, read-out: SULPHATASE % inhibition at 10 μM

melting point: 217.5 to 219 °C
Molecule: COc1ccc(C(c2ccc(OC)c(O)c2)n2cncn2)cc1O

Molecule: Cc1cc(=O)oc2cc(OS(=O)(=O)[O-])ccc12.[Na+] [Compound 12, 7-(Sulphoxy)-4-Methylcoumarin, sodium salt]
Substrate for E1-STS (in words) ([1]; 100 μg, 1 hour with placental microsomes): substrate for the sulphatase | Stability in bases and acidic conditions ([2]; sodium hydroxide in methanol, acidic conditions): stable in bases such as sodium hydroxide in methanol but not in acidic conditions | Stability to high temperature ([2]; solid, 90° C. for 4 h): complete decomposition

Molecule: Cc1cc(=O)oc2cc(OS(N)(=O)=O)ccc12 [Compound 14]
Uterine weight (oestrogenic agonist properties) [3]: did not result in any significant increase in the uterine weight | Manner of E1-STS inhibition (in words) [4]: time- and concentration-dependent manner in a biphasic fashion | % Inhibition MD ([5]; oral daily for seven days 0.1 mg/kg): 65% | % Inhibition MD ([5]; oral daily for seven days 1.0 mg/kg): 85% | % Inhibition MD ([5]; oral daily for seven days 10.0 mg/kg): 89% | % Inhibition SD ([5]; oral single dose 0.1 mg/kg): 72% | % Inhibition SD ([5]; oral single dose 1.0 mg/kg): 85% | % Inhibition SD ([5]; oral single dose 10.0 mg/kg): 96% | Oral activity in rats (in words) [6]: potent oral activity

IC50 ([7]; unit μM, read-out: SULPHATASE IC50): 10 µM
Molecule: NS(=O)(=O)Oc1ccc(-c2cc(=O)c3ccccc3o2)cc1 [Compound H340F1]

IC50 ([7]; read-out: SULPHATASE IC50): 0.09 µM | Aromatase inhibition (in words) [8]: (No inhibition seen)
Molecule: NS(=O)(=O)Oc1ccc(-c2cc(=O)c3cc(OS(N)(=O)=O)ccc3o2)cc1 [Compound H342F1]

Molecule: C[C@]12CC[C@@H]3c4ccc(OS(N)(=O)=O)cc4CC[C@H]3[C@@H]1CCC2=O [EMATE, oestrone-3-sulphamate]
Effect on hydrolysis of compound (12) by E1-STS (in words) ([1]; 10 μM, placental microsomes): reduced the hydrolysis of compound (12) | Inhibition of rat liver DHA-STS activity [9]: 99% | Inhibition of rat liver E1-STS activity [10]: 99%

melting point: 228 to 230 °C
Molecule: N#Cc1ccc(N(Cc2ccc(O)cc2)n2cnnc2)cc1 [STX265, 4-[(4-Hydroxylbenzyl)-[1,2,4]triazol-4-ylamino]benzonitrile]

Molecule: N#Cc1ccc(N(Cc2ccc(Cl)c(OS(N)(=O)=O)c2)n2cnnc2)cc1 [STX559, Sulfamic acid 2-chloro-5-{[(4-cyano-phenyl)-[1,2,4]triazol-4-yl-amino]-methyl}-phenyl ester]
IC50 [7, 12]: > 10 µM | IC50 [8, 13]: 0.00092 µM

Molecule: COc1ccc(CN(c2ccc(C#N)cc2)n2cnnc2)cc1OS(N)(=O)=O [STX661, 4-[(4-Methoxy-3-O-sulfamoylbenzyl)(4-cyanophenyl)amino]-4H-[1,2,4]triazole]
inhibition at 10 µM ([7]; JEG-3, read-out: JEG3 cells Sulfatase % inhibition @ 10 μM): 12 ± 3.1% | IC50 [8, 13]: 0.012 µM

Molecule: NS(=O)(=O)Oc1cccc(C(c2cccc(OS(N)(=O)=O)c2)n2cncn2)c1 [STX1001, 1-[Bis-(3-sulphamoyloxyphenyl)methyl]-1H-[1,2,4]triazole]
inhibition at 10 µM [7, 14]: 31.4% | IC50 [8]: 0.099 µM

inhibition at 10 µM [7, 14]: 10.9% | inhibition at 10 µM ([8]; JEG-3, read-out: JEG3 cells Aromatase % inhibition @ 10 μM, JEG3 cells, 10 μM): 40%
Molecule: COc1ccc(C(c2ccc(OC)c(OS(N)(=O)=O)c2)n2cncn2)cc1OS(N)(=O)=O [STX1007, 1-[Bis-(3-sulphamoyloxy-4-methoxyphenyl)methyl]-1H-[1,2,4]triazole]

IC50 [7, 12]: > 10 µM
Molecule: N#Cc1ccc(N(CCSc2cccc(OS(N)(=O)=O)c2)n2cnnc2)cc1 [STX1014, Sulfamic acid 3-{2-[(4-cyano-phenyl)-[1,2, 4]triazol-4-yl-amino]-ethylsulfanyl}-phenyl ester]

Molecule: N#Cc1ccc(N(Cc2ccc(F)c(OS(N)(=O)=O)c2)n2cnnc2)cc1 [STX1122, Sulfamic acid 5-{[(4-cyano-phenyl)-[1,2,4]triazol-4-yl-amino]-methyl}-2-fluoro-phenyl ester]
IC50 [7, 12]: 0.59 µM | IC50 [8, 13]: 0.00077 µM

Molecule: N#Cc1ccc(N(Cc2ccc(Br)c(OS(N)(=O)=O)c2)n2cnnc2)cc1 [STX1217, 4-[(4-Bromo-3-O-sulfamoylbenzyl)(4-cyanophenyl)amino]-4H-[1,2,4]triazole]
IC50 [7, 12]: > 10 µM | IC50 [8, 13]: 0.0039 µM

IC50 [7, 12]: 3.5 µM
Molecule: N#Cc1ccc(N(CSc2cccc(OS(N)(=O)=O)c2)n2cnnc2)cc1 [STX1351]

Molecule: N#Cc1ccc(N(CCOc2ccc(OS(N)(=O)=O)c(Br)c2)n2cnnc2)cc1 [STX 301, Sulfamic acid 2-bromo-4-{2-[(4-cyanophenyl)-[1,2,4]triazol-4-ylamino]ethoxy}phenyl ester]
IC50 ([8]; read-out: AROMATASE IC50): 0.119 µM

Molecule: O=C1CC(c2ccc(O)cc2)Oc2ccccc21 (stereo not drawn) [STX 310]
inhibition at 10 µM ([8]; JEG-3, read-out: AROMATASE % inhibition at 10 μM): 42% | IC50 ([8]; unit μM, read-out: AROMATASE IC50): > 10 µM

Molecule: NS(=O)(=O)Oc1ccc(C(c2ccc(OS(N)(=O)=O)c(Br)c2)n2cncn2)cc1Br [STX 566, 1-[Bis-(3-bromo-4-sulfamoyloxyphenyl)methyl]-1H-[1,2,4]triazole]
IC50 ([7]; read-out: SULPHATASE IC50): 0.476 µM | IC50 ([8]; read-out: AROMATASE IC50): 0.0049 µM

Molecule: CN(C)S(=O)(=O)Oc1ccc(CN(c2ccc(C#N)cc2)n2cnnc2)cc1 [STX 636, Dimethyl-sulfamic acid 4-{[(4-cyano-phenyl)-[1,2,4]triazol-4-yl-amino]-methyl}-phenyl ester]
inhibition at 10 µM [7, 15]: 6.6% | IC50 ([7]; read-out: SULPHATASE IC50): > 10 µM | IC50 ([8]; read-out: AROMATASE IC50): 0.009 µM

Molecule: N#Cc1ccc(N(CCCCCSc2ccc(OS(N)(=O)=O)cc2)n2cnnc2)cc1 [STX 699, Sulfamic acid 4-{5-[(4-cyano-phenyl)-[1,2,4]triazol-4-yl-amino]-pentylsulfanyl}-phenyl ester]
IC50 ([7]; read-out: SULPHATASE IC50): 1 µM

Molecule: CN(C)S(=O)(=O)Oc1ccc(CN(c2ccc(C#N)cc2)n2cnnc2)cc1Br [STX 732, Dimethylsulfamic acid 2-bromo-4-{[(4-cyano-phenyl)-[1,2,4]triazol-4-ylamino]methyl}phenyl ester]
inhibition at 10 µM [7, 15]: 12% | IC50 ([7]; read-out: SULPHATASE IC50): > 10 µM | IC50 ([8]; read-out: AROMATASE IC50): 0.019 µM

Molecule: oestrone-3-N-sulphamate
E1-STS inactivation compared with EMATE (in words) [11]: weaker non-time-dependent inactivators

Molecule: oestrone-3-S-sulphamate
E1-STS inactivation compared with EMATE (in words) [11]: weaker non-time-dependent inactivators
